Experiment [1] addresses MIC2. As to the kind of experiment: SPR binding of PROTACs to immobilized antibody MIC2. The following applies: MIC2, 1:1 kinetic binding model. The procedure: (§1) The binding affinities of hit antibodies MIC1 and MIC2 to a diverse set of VH032-based PROTACs (FIGS. 8A-8B) was determined by surface plasmon resonance (SPR) in a Biacore T200 instrument. The running buffer consist of PBS, 0.05% Tween-20, 2% DMSO and temperature and flow rate were set to 30° C. and 30 μL/min, respectively. The assay setup is depicted exemplarily in FIG. 7A. CM5 sensor chips were coated with antibody (=ligand; 2500 RU) using standard EDC/NHS chemistry. PROTACs (=analytes) were serially diluted (1 μM-1.9 nM) in running buffer, injected to the instrument in consecutive runs and were captured by the antibody resulting in an increase of the corresponding SPR response. After the association step (300 s), running buffer was injected for 600 s and the PROTAC dissociated from the antibody leading to signal decrease. After each run, residual bound PROTAC was removed from the immobilized antibody by injection of 10 mM glycine/HCl, pH 1.5 for 2×30 s regenerating the antibody for the next association and dissociation cycle. To compensate for matrix effects, the measured SPR response signal was subtracted by the analyte response to an inactivated (EDC/NHS, ethanol amine) reference surface omitting the ligand. Furthermore, a DMSO solvent correction was performed and analyte response was subtracted by the running buffer signal. The corrected response was fitted by a 1:1 kinetic binding model yielding the on- (kon) and off-rate (koff) of the PROTAC, as well as its dissociation constant (KD).
Background: SPR reads the build-up and loss of mass on a sensor chip optically.

In experiment [2] the target is MIC1. As to the kind of experiment: SPR binding of PROTACs to immobilized antibody MIC1. The following applies: binding of PROTACs to MIC1, steady-state model. The procedure:
as §1, with “The corrected response was fitted by a 1:1 kinetic binding model yielding the on- (kon) and off-rate (koff) of the PROTAC, as well as its dissociation constant (KD).” left out

In experiment [3] the target is CLL1xMIC7. As to the kind of experiment: SPR affinity of VHH clone (antibody fusion) to PROTACs. The following applies: CLL1xMIC7 immobilized, 25° C., read-out: KD [M] for antibody binding to PROTAC. The procedure: (§2) The kinetic and affinity parameters of protein-PROTAC interactions were evaluated by SPR. The anti-PROTAC VHH clones MIC5-MIC14 were immobilized as CD33 or CLL1 antibody fusion (the manufacturing of fusion proteins and the used linker is described in chapter 7.9) onto a CM5 (Series S) sensor chip via the standard amine coupling procedure, at 25° C. Prior to immobilization, the carboxymethylated surface of the chip was activated with 400 mM 1-ethyl-3-(3-dimethylaminopropyl)-carbodiimide and 100 mM N-hydroxysuccinimide for 7 min. Hit anti-PROTAC VHH as CD33 and CLL1 antibody fusions were diluted to 10 μg/ml in 10 mM Acetate at pH 4.5 and immobilized on the activated surface chip for 7 min, in order to reach 3,000 to 6,000 response units (RU). The remaining activated carboxymethylated groups were blocked with a 10 min injection of 1 M ethanolamine pH 8. HBS-N, which consists of 10 mM HEPES pH 7.4 and 150 mM NaCl, was used as the background buffer during immobilization. PROTACs were prediluted in DMSO, diluted 1:50 in running buffer (12 mM phosphate pH 7.4, 137 mM NaCl, 2.7 mM KCl, 0.05% Tween20, 2% DMSO) and injected at ten different concentrations using two-fold dilution series, from 1 μM to 0.002 μM. A DMSO solvent correction (1%-3%) was performed to account for variations in bulk signal and to achieve high-quality data. Interaction analysis cycles consisted of a 300 sec sample injection (30 μL/min; association phase) followed by 900 sec of buffer flow (dissociation phase).
(§3) All sensorgrams were processed by first subtracting the binding response recorded from the control surface (reference flow-channel), followed by subtracting of the buffer blank injection from the active flow-channel (target protein immobilized). All datasets were fit to a simple 1:1 Langmuir interaction model to determine the kinetic rate constants. Experiments were performed on a Biacore 8k+ (Cytiva, Uppsala, Sweden) at 25° C. and the interactions were evaluated using the provided Biacore Insight Evaluation software.

In experiment [4] the target is CD33xMIC7. Described as above. The following applies: CD33xMIC7 immobilized, 25° C., read-out: KD [M] for antibody binding to PROTAC. The method, then:
as §2, §3

Experiment [5] relates to A549. As to the kind of experiment: CellTiter-Glo cell viability assay (VHH-based PAX). The following applies: A549, PROTAC alone. The procedure: (§4) Several cell viability experiments were performed following the procedure described below: Cells were seeded in different media into white cell culture-treated flat and clear bottom multiwell plates followed by overnight incubation in a humid chamber at 37° C. and 5% CO2. Complexation was performed as described in chapter 7.4.
(§5) The solutions were added to the cells based on the antibody concentration using nanodrop dispension using a Tecan D300e Digital Dispenser and all wells were normalized to the same volume using 0.3% TW20 in PBS pH 7.4 and DMSO to a final solvent concentration of 0.05% DMSO and 0.003% TW20. Incubation was performed at 37° C. at 5% or 10% CO2 dependent on the medium. The assay was developed after 3 days if not otherwise stated using CellTiter-Glo Luminescent Cell Viability Assay as described in the manufacturer's protocol. In brief, the plates were equilibrated to room temperature for 30 minutes. 100 mL CellTiter-Glo Buffer were added to the CellTiter-Glo Substrate Flask and mixed well. 30 μL of the reagent was transferred to each well. After incubation for 3 minutes at room temperature while shaking at 550 rpm, the plate was incubated for another 10 minutes at room temperature. The luminescence was read on an Envision reader from Perkin Elmer. Solvent alone and Bortezomib (1.0E-05 M) served as high control (100% viability) and low control (0% viability), respectively. Raw data were converted into percent cell viability relative to the high and low control, which were set to 100% and 0%, respectively. […] The concentration corresponds to the concentration of PROTACs in the PAX.
In general terms: Cellular ATP, detected with luciferase, serves as a proxy for viable cell number.

For experiment [6], the system named is MCF7. Description: CellTiter-Glo cell viability assay (VHH-based PAX). The following applies: MCF7, PROTAC alone. The procedure:
as §4, §5

The subject of experiment [7] is A431. As to the kind of experiment: CellTiter-Glo cell viability assay (VHH-based PAX). The following applies: A431, PROTAC alone. The method, then:
as §4, §5

Experiment [8] has as its system HCC827. As to the kind of experiment: CellTiter-Glo cell viability assay (VHH-based PAX). The following applies: HCC827, PROTAC alone. The procedure:
as §4, §5

Experiment [9] concerns SKOV3. Description: CellTiter-Glo cell viability assay (VHH-based PAX). The following applies: SKOV3, PROTAC alone. The procedure: as §4, §5
Experiment [10] concerns SKBR3. Description: CellTiter-Glo cell viability assay (VHH-based PAX). The following applies: SKBR3, PROTAC alone. The procedure:
as §4, §5

In experiment [11] the test system is OVCAR3. Description: CellTiter-Glo cell viability assay (VHH-based PAX). The following applies: OVCAR3, PROTAC alone. The procedure: as §4, §5
Experiment [12] has as its system MDAMB468 cells. As to the kind of experiment: CellTiter-Glo cell viability assay (VHH-based PAX). The following applies: MDAMB468, PROTAC alone. The method, then: as §4, §5
The test system of experiment [13] is NCIN87. Description: CellTiter-Glo cell viability assay (VHH-based PAX). The following applies: NCIN87, PROTAC alone. The procedure:
as §4, §5

In experiment [14] the test system is HEPG2 cells. As to the kind of experiment: CellTiter-Glo cell viability assay (VHH-based PAX). The following applies: HEPG2, PROTAC alone. The procedure: as §4, §5

SMILES strings stand for the structures.

In general, Kd refers to the constant that tells how readily two partners part at equilibrium. The IC50 is the concentration that inhibits the measured activity by half. The low end stands for greater potency in that assay, the high end for weaker potency in that assay.

Consider `Cc1ncsc1-c1ccc(CNC(=O)[C@@H]2C[C@@H](O)CN2C(=O)[C@@H](NC(=O)COCCOCCOCCNC(=O)C[C@@H]2N=C(c3ccc(Cl)cc3)c3c(sc(C)c3C)-n3c(C)nnc32)C(C)(C)C)cc1` [MZ1], for which, in experiment [1], the Kd came to 0.12 nM, the koff result is given as “NM/1.30E−04 1/s” and the kon result is “NM/1.10E+06 1/Ms”. Further, the Kd in experiment [2] is 4.9 nM.

For the compound `Cc1ncsc1-c1ccc(CNC(=O)[C@@H]2C[C@@H](O)CN2C(=O)[C@@H](NC(=O)COCC(C)(COCCOCCOCCNC(=O)C[C@@H]2N=C(c3ccc(Cl)cc3)c3c(sc(C)c3C)-n3c(C)nnc32)COCCOCCOCCNC(=O)C[C@@H]2N=C(c3ccc(Cl)cc3)c3c(sc(C)c3C)-n3c(C)nnc32)C(C)(C)C)cc1` [SIM1], the Kd is less than 1e-10 M in experiment [3] and 3.8e-09 M in experiment [4]. The IC50 is 17 nM in experiment [5]; 1.5 nM in experiment [6]; 3 nM in experiment [7]; 6.5 nM in [8]; 2.4 nM in experiment [9]; 3.6 nM in experiment [10]. Further, the IC50 amounted to 2.8 nM in [11], 7.1 nM in [12], 4 nM in [13] and 14 nM in [14].

For the origin of these results see US20250312468A1, “ANTI-PROTAC ANTIBODIES AND COMPLEXES” (Merck Patent GmbH, priority 2021, published 2025).
